Reference: patent publication US10472356B2, “Bicyclic ketone sulfonamide compounds” (AMGEN INC., priority 2015, dated 2019)
pIC50: −log10 of the molar value.

Legend:
Type in all cases: cell-based
[1] = target: T1, human Nav1.7 (Homo sapiens, UniProt Q15858); assay: Nav 1.7 In Vitro PatchXpress (PX) Assay; details: HEK 293 cells stably transfected with human Nav1.7; PatchXpress whole cell voltage clamp; partially inactivated state (holding potential yielding 20 to 50% inactivation); read-out: hNav1.7 PX IC50
T1 construct: expressed in transfected cells; host or cells: HEK293
T1 sequence (Q15858 whole entry): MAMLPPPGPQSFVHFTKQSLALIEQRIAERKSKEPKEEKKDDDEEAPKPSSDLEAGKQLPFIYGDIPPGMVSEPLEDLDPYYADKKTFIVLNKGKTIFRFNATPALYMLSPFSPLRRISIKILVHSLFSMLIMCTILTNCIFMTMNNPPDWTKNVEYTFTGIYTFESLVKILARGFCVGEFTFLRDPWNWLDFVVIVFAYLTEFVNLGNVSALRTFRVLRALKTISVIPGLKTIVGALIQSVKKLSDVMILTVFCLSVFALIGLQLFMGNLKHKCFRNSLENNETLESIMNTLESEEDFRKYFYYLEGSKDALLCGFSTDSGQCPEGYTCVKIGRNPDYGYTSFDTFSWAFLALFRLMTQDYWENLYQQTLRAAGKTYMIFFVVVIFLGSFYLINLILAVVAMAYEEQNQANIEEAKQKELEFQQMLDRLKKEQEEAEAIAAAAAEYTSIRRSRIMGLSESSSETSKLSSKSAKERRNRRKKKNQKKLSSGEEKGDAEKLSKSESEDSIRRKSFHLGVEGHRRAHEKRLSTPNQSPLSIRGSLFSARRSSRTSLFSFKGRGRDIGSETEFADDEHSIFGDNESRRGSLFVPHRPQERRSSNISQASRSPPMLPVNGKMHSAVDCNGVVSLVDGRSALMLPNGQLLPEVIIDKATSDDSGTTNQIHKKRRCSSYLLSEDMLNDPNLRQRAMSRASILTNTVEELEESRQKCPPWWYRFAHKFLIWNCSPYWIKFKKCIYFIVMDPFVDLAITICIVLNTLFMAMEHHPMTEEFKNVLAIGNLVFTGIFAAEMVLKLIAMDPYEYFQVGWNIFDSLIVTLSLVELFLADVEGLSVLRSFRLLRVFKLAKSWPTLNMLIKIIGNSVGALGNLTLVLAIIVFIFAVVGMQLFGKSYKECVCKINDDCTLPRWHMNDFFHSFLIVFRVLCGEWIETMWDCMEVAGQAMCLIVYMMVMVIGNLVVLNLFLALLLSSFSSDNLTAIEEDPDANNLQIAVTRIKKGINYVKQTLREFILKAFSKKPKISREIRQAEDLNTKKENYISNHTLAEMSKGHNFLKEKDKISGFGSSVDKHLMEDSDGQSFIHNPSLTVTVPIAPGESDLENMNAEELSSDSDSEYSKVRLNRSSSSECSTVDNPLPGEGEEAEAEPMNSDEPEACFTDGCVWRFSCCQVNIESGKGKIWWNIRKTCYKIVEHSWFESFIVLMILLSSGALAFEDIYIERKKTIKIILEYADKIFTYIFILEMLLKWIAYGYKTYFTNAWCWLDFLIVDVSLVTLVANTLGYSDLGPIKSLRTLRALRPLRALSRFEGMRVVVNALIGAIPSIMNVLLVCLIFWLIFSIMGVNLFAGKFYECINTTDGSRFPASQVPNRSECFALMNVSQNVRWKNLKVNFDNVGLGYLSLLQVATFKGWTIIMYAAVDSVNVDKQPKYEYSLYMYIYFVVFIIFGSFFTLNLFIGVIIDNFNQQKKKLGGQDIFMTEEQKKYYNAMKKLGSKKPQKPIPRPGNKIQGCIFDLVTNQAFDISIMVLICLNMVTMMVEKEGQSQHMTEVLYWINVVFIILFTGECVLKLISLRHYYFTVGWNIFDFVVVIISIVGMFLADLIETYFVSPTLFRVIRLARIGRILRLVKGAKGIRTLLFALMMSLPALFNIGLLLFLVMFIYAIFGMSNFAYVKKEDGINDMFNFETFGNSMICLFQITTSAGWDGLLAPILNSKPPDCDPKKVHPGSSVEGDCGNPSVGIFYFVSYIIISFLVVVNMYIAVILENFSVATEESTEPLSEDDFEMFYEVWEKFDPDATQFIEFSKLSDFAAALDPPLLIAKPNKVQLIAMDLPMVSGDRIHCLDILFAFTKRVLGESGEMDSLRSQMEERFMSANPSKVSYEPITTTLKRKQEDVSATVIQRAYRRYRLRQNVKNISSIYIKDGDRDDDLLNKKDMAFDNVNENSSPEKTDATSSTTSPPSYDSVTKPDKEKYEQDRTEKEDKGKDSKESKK
Method in brief: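 Percent inhibition of peak sodium current taken after 3 min exposure to one compound concentration, 3–5 cells each, with IC50 curve fits. Partially inactivated channels (20–50% inactivation at holding potential) in Nav1.7-HEK 293 cells, activated by 20 ms steps to −10 mV every 10 s.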

[2] = target: T1, human Nav1.7; assay: Nav 1.7 IWQ In Vitro Assay (IonWorks Quattro); details: HEK293 cells stably transfected with human Nav 1.7; IonWorks Quattro population patch-clamp; 26th pulse to −20 mV, 5 Hz; cells unclamped 5 to 8 minutes with compound; read-out: hNav1.7 IWQ IC50
Method: Nav 1.7 or Nav 1.5 IWQ In Vitro Assay
HEK293 cells stably transfected with either human Nav 1.7 or human Nav 1.5 were recorded in population patch-clamp mode with the IonWorks® Quattro automated electrophysiology system (Molecular Devices, LLC, Sunnyvale, Calif.). Cells were voltage clamped to −110 mV for three seconds (Nav 1.7) or half a second (Nav 1.5) and sodium currents were elicited by a train of 26 depolarizations of 150 msec duration to −20 mV (Nav 1.7) or 0 mV (Nav 1.5) at a frequency of 5 Hz. Cells were then left unclamped for a period of 5 to 8 minutes while a single concentration of test compound was added. Following this compound incubation period, cells were then reclamped to −110 mV for three seconds (Nav1.7) or half a second (Nav1.5) to recover unbound channels and put through the same 26 pulse voltage protocol as above. Peak inward current during the 26th pulse to −20 mV (Nav 1.7) or 0 mV (Nav 1.5) in the presence of compound was divided by the peak inward current evoked by the 26th pulse to −20 mV (Nav1.7) or 0 mV (Nav1.5) in the absence of compound to determine percent inhibition. Concentration-response curves of percent.

[3] = target: T1, human Nav1.7; assay: Nav 1.7 IWB In Vitro Assay (IonWorks Barracuda); details: HEK293 cells stably transfected with human Nav 1.7; IonWorks Barracuda population patch-clamp; cells clamped to −20 mV for 4 minutes with compound; 26th pulse; read-out: hNav1.7 IWB IC50
Method in brief: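 IC50 derived from concentration-response of percent block of the 26th-pulse peak inward current, compound vs none. Protocol: stable human Nav 1.7 HEK293 cells on automated population patch clamp, held at −110 mV, 5 Hz train of 150 ms steps to −20 mV, 4 min compound exposure depolarized at −20 mV, 3 s repolarization, train repeated.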

Structure (SMILES) | pIC50 [1] | pIC50 [2] | pIC50 [3]
COc1cc(-c2cc(F)cc(Cl)c2)c(F)cc1-n1c2c(ccc1=O)CN(S(=O)(=O)Nc1ncccn1)CC2 (racemic) [Example 31, (Rac)-1-(3′-chloro-2,5′-difluoro-5-methoxy-4-biphenylyl)-2-oxo-N-2-pyrimidinyl-1,5,7,8-tetrahydro-1,6-naphthyridine-6(2H)-sulfonamide] | 6.86 | 7.55 | 7.44
COc1cc(-c2cc(F)cc(Cl)c2)c(F)cc1-n1c2c(ccc1=O)CN(S(=O)(=O)Nc1cc(C)ncn1)CC2 (single isomer, unassigned) [Example 4-P, P-1-(3′-chloro-2,5′-difluoro-5-methoxy-4-biphenylyl)-N-(6-methyl-4-pyrimidinyl)-2-oxo-1,5,7,8-tetrahydro-1,6-naphthyridine-6(2H)-sulfonamide] | 7.11 | 7.61 | 7.50
COc1cc(CCC(F)(F)F)c(Cl)cc1-n1c2c(ccc1=O)CN(S(=O)(=O)Nc1cccnn1)CC2 (single isomer, unassigned) [Example 96-P, P-1-(5-chloro-2-methoxy-4-(3,3,3-trifluoropropyl)phenyl)-2-oxo-N-(pyridazin-3-yl)-1,2,7,8-tetrahydro-1,6-naphthyridine-6(5H)-sulfonamide] |  | 8.05 | 7.47
COc1cc(-c2cc(OC)c(-n3c4c(ccc3=O)CN(S(=O)(=O)Nc3cccnn3)CC4)cc2F)ccc1Cl (single isomer, unassigned) [Example 2-M, M-1-(4′-chloro-2-fluoro-3′,5-dimethoxy-4-biphenylyl)-2-oxo-N-3-pyridazinyl-1,5,7,8-tetrahydro-1,6-naphthyridine-6(2H)-sulfonamide] | 5.26 | 6.59 | 6.88
COc1cc(-c2ccc(C(F)F)c(F)c2)c(F)cc1-n1c2c(ccc1=O)CN(S(=O)(=O)Nc1cccnn1)CC2 [Example 87, P-1-(4′-(difluoromethyl)-2,3′-difluoro-5-methoxy-[1,1′-biphenyl]-4-yl)-2-oxo-N-(pyridazin-3-yl)-1,2,7,8-tetrahydro-1,6-naphthyridine-6(5H)-sulfonamide] |  | 7.91 | 7.72
COc1cc(CCC(F)(F)F)c(F)cc1-n1c2c(ccc1=O)CN(S(=O)(=O)Nc1cccnn1)CC2 [Example 95, P-1-(5-fluoro-2-methoxy-4-(3,3,3-trifluoropropyl)phenyl)-2-oxo-N-(pyridazin-3-yl)-1,2,7,8-tetrahydro-1,6-naphthyridine-6(5H)-sulfonamide] |  | 7.68 | 7.44
COc1cc(-c2ccc(OC)c(C(F)(F)F)c2)c(F)cc1-n1c2c(ccc1=O)CN(S(=O)(=O)Nc1cccnn1)CC2 [Example 82, P-1-(2-fluoro-4′,5-dimethoxy-3′-(trifluoromethyl)-[1,1′-biphenyl]-4-yl)-2-oxo-N-(pyridazin-3-yl)-1,2,7,8-tetrahydro-1,6-naphthyridine-6(5H)-sulfonamide] |  | 7.81 | 7.59
COc1cc(CCC(F)(F)F)c(F)cc1-n1c2c(ccc1=O)CN(S(=O)(=O)Nc1ccon1)CC2 [Example 94, P-1-(5-fluoro-2-methoxy-4-(3,3,3-trifluoropropyl)phenyl)-N-(isoxazol-3-yl)-2-oxo-1,2,7,8-tetrahydro-1,6-naphthyridine-6(5H)-sulfonamide] |  | 7.73 | 7.47
COc1cc(-c2ccc(F)c(C)c2)c(F)cc1-n1c2c(ccc1=O)CN(S(=O)(=O)Nc1ccon1)CC2 (single isomer, unassigned) [Example 22-M, M-1-(2,4′-difluoro-5-methoxy-3′-methyl-4-biphenylyl)-N-3-isoxazolyl-2-oxo-1,5,7,8-tetrahydro-1,6-naphthyridine-6(2H)-sulfonamide] | < 4.52 |  | < 5.00

Further compounds by rising pIC50 [2], results first:

pIC50 [1] | pIC50 [2] | pIC50 [3] | Structure (SMILES)
 | 8.08 | 7.77 | COc1cc(-c2cc(F)cc(C(F)F)c2)c(F)cc1-n1c2c(ccc1=O)CN(S(=O)(=O)Nc1cccnn1)CC2 [Example 84, P-1-(3′-(difluoromethyl)-2,5′-difluoro-5-methoxy-[1,1′-biphenyl]-4-yl)-2-oxo-N-(pyridazin-3-yl)-1,2,7,8-tetrahydro-1,6-naphthyridine-6(5H)-sulfonamide]
6.76 | 8.14 |  | COc1cc(-c2cc(F)cc(F)c2)c(F)cc1-n1c2c(ccc1=O)CN(S(=O)(=O)Nc1ccon1)CC2 (single isomer, unassigned) [Example 25-P, P-N-3-isoxazolyl-2-oxo-1-(2,3′,5′-trifluoro-5-methoxy-4-biphenylyl)-1,5,7,8-tetrahydro-1,6-naphthyridine-6(2H)-sulfonamide]
 | 8.15 | 7.84 | COc1cc(-c2cc(F)c(F)c(C(F)F)c2)c(F)cc1-n1c2c(ccc1=O)CN(S(=O)(=O)Nc1cccnn1)CC2 [Example 86, P-1-(3′-(difluoromethyl)-2,4′,5′-trifluoro-5-methoxy-[1,1′-biphenyl]-4-yl)-2-oxo-N-(pyridazin-3-yl)-1,2,7,8-tetrahydro-1,6-naphthyridine-6(5H)-sulfonamide]
7.13 | 8.17 |  | COc1cc(-c2ccc(Cl)c(C)c2)c(F)cc1-n1c2c(ccc1=O)CN(S(=O)(=O)Nc1ccon1)CC2 (racemic) [Example 24-(Rac), (Rac)-1-(4′-chloro-2-fluoro-5-methoxy-3′-methyl-4-biphenylyl)-N-3-isoxazolyl-2-oxo-1,5,7,8-tetrahydro-1,6-naphthyridine-6(2H)-sulfonamide]
 | 8.27 | 7.86 | COc1cc(-c2cnc(OC)c(C(F)(F)F)c2)c(F)cc1-n1c2c(ccc1=O)CN(S(=O)(=O)Nc1cccnn1)CC2 [Example 80, P-1-(5-fluoro-2-methoxy-4-(6-methoxy-5-(trifluoromethyl)pyridin-3-yl)phenyl)-2-oxo-N-(pyridazin-3-yl)-1,2,7,8-tetrahydro-1,6-naphthyridine-6(5H)-sulfonamide]
7.48 | 8.30 | 8.13 | COc1cc(-c2cccc(OC(F)F)c2)c(F)cc1-n1c2c(ccc1=O)CN(S(=O)(=O)Nc1ccon1)CC2 (single isomer, unassigned) [Example 19-P, P-1-(3′-(difluoromethoxy)-2-fluoro-5-methoxy-4-biphenylyl)-N-3-isoxazolyl-2-oxo-1,5,7,8-tetrahydro-1,6-naphthyridine-6(2H)-sulfonamide]
 | 8.37 | 7.76 | COc1cc(-c2ccc(F)c(C(F)F)c2)c(F)cc1-n1c2c(ccc1=O)CN(S(=O)(=O)Nc1cccnn1)CC2 [Example 85, P-1-(3′-(difluoromethyl)-2,4′-difluoro-5-methoxy-[1,1′-biphenyl]-4-yl)-2-oxo-N-(pyridazin-3-yl)-1,2,7,8-tetrahydro-1,6-naphthyridine-6(5H)-sulfonamide]
 | 8.41 | 8.07 | COc1cc(-c2ccc(F)c(OC(F)(F)F)c2)c(F)cc1-n1c2c(ccc1=O)CN(S(=O)(=O)Nc1cccnn1)CC2 [Example 81, P-1-(2,4′-difluoro-5-methoxy-3′-(trifluoromethoxy)-[1,1′-biphenyl]-4-yl)-2-oxo-N-(pyridazin-3-yl)-1,2,7,8-tetrahydro-1,6-naphthyridine-6(5H)-sulfonamide]
 | 8.41 | 8.59 | COc1cc(-c2cc(F)c(F)c(OC)c2)c(F)cc1-n1c2c(ccc1=O)CN(S(=O)(=O)Nc1cccnn1)CC2 [Example 79, P-2-oxo-N-(pyridazin-3-yl)-1-(2,3′,4′-trifluoro-5,5′-dimethoxy-[1,1′-biphenyl]-4-yl)-1,2,7,8-tetrahydro-1,6-naphthyridine-6(5H)-sulfonamide]
 | 8.47 | 8.29 | COc1cc(-c2cc(OC)c(-n3c4c(ccc3=O)CN(S(=O)(=O)Nc3cccnn3)CC4)cc2F)cc(C(F)(F)F)c1 [Example 83, P-1-(2-fluoro-3′,5-dimethoxy-5′-(trifluoromethyl)-[1,1′-biphenyl]-4-yl)-2-oxo-N-(pyridazin-3-yl)-1,2,7,8-tetrahydro-1,6-naphthyridine-6(5H)-sulfonamide]
7.70 | 8.89 | 8.06 | COc1cc(Cl)cc(-c2cc(OC)c(-n3c4c(ccc3=O)CN(S(=O)(=O)Nc3ccon3)CC4)cc2F)c1 [Example 89, P-1-(3′-chloro-2-fluoro-5,5′-dimethoxy-[1,1′-biphenyl]-4-yl)-N-(isoxazol-3-yl)-2-oxo-1,2,7,8-tetrahydro-1,6-naphthyridine-6(5H)-sulfonamide]
